Results as given in US11813239B2, “Compositions and methods for improving cardiac structure and/or function” (Wisconsin Alumni Research Foundation, priority 2020, dated 2023).

Columns and labels:
[1] = test system: postnatal (P7) mouse heart following myocardial infarction; assay: Echocardiography after myocardial infarction in P7 juvenile mice; conditions: sham at P7 (SH, n = 6), dimethyl malonate 100 mg/kg daily for 2 weeks from birth, echo at day 21 (P7D21), mean ± SE
Description: (§1) Neonatal mice at postnatal day 1 (P1) or day 7 (P7) were used for myocardial infarction (MI) surgery. Neonatal mice were subjected to MI surgeries as previously described. Briefly, neonates were anesthetized by hypothermia on ice. Lateral thoracotomy at the fourth intercostal space was performed by blunt dissection of the intercostal muscles after skin incision. A C-1 tapered needle attached to a 6-0 prolene suture (Ethicon Inc., Bridgewater, N.J.) was passed through the mid-ventricle below the left anterior descending coronary artery (LAD) and tied off to induce MI. The prolene suture was used to suture the ribs together and seal the chest wall incisions, and the skin was closed using adhesive glue (3M). The mice then were warmed on a heating pad until recovery. Sham-operated mice underwent the same procedure including hypothermic anesthesia, but not LAD ligation.
(§2) Neonatal mice were weighed and injected daily with either saline, 100 mg/kg dimethyl succinate (Sigma), 100 mg/kg dimethyl malonate (Sigma), or 100 μg/kg Atpenin A5 (Enzo Life Sciences). Dimethyl succinate and dimethyl malonate were dissolved in saline. Stock solution of Atpenin A5 at 0.1 mg/ml was initially prepared by dissolving in DMSO (Sigma) and then further diluted with saline before injection. Saline was used as a vehicle control for all experiments.
(§3) Transthoracic echocardiography was performed by using a Visual Sonics 770 ultrasonograph with a 25-MHz transducer (Visual Sonics, Toronto) as described previously^19. Mice were lightly anesthetized with 1% isoflurane and maintained on a heated platform. Two-dimensionally guided M-mode images from a parasternal long axis (PLAX) of the left ventricle (LV) were acquired at the tip of the papillary muscles. Wall thickness and chamber diameters were measured in both diastole and systole. Fractional shortening was calculated as (LVDd−LVDs)/LVDd×100, where LVDd is LV diameter in diastole and LVDs is LV diameter in systole. Ejection fraction was calculated as [(7.0/(2.4+LVDd)(LVDd)^3−(7.0/(2.4+LVDs)(LVDs)^3/(7.0/(2.4+LVDd)(LVDd)^3×100 and LV mass was calculated by using the formula [1.05×((Posterior Walldiastole+Anterior Walldiastole+LVDd)^3−(LVDd)^3)]. All parameters were measured over at least three consecutive cycles.
We injected dimethyl malonate (100 mg/kg, daily) in neonatal mice directly after birth for 2 weeks with an MI performed once the mice reached P7. We then analyzed the hearts following injury to determine whether malonate results in prolongation of the neonatal regenerative window (FIG. 10A).

[2] = test system: adult mouse heart following myocardial infarction; assay: Echocardiography after adult MI, malonate treatment starting 1-week post-MI; conditions: for % EF (Ejection Fraction) / % FS (Fractional Shortening) / LV Mass (Left Ventricular Mass, Anatomical Weight) / LV Vol; d (Left Ventricular Volume; diastole) / LV Vol; s (Left Ventricular Volume; systole) / LVAWD (Left Ventricle Anterior Wall Thickness Diastole) / LVAWS (Left Ventricle Anterior Wall Thickness Systole) / LVIDD (Left Ventricle Internal Diameter Diastole) / LVIDS (Left Ventricle Internal Diameter Systole) / LVPWD (Left Ventricle Posterior Wall Thickness Diastole) / LVPWS (Left Ventricle Posterior Wall Thickness Systole): adult mice, mean ± SE
Excerpt: Adult male mice (8-week-old) were subjected to MI by ligation of the proximal aspect of the LAD coronary artery. In brief, mice were anaesthetized using 3% isoflurane, then mice were intubated with PE50 tubing and placed on a mouse ventilator at 120-130 breaths per minute with a stroke volume of 150 microliters and maintained on 2% isoflurane. A left lateral incision through the fourth intercostal space was made to expose the heart. After visualizing the left coronary artery, 7-0 suture was placed through the myocardium in the anterolateral wall and secured as previously describer^17,18. Coronary artery entrapment was confirmed by observing blanching of the distal circulation (ventricular apex). ECG was used to confirm MI by noting ST segment changes. The lungs were over inflated, and the ribs and muscle layers were closed by absorbable sutures. The skin is closed by additional suturing using 6-0 nylon. The mouse was recovered from the anesthesia and extubated.
(§4) Saline was used as a vehicle control for all experiments. […] Adult mice were injected intraperitoneally daily with either saline or 100 mg/kg dimethyl malonate post-MI for 2 or 4 weeks.
as §3
To determine whether SDH inhibitors can promote a regenerative response following the establishment of infarction, we performed MI in 8-week-old mice and started malonate treatment at 1-week post-MI (FIG. 20A). […] Mice were then randomized and treated with saline or malonate for a period of 4 weeks, and hearts were harvested at 6 weeks post-MI (FIG. 20A).

[3] = test system: tricarboxylic acid (TCA) cycle and glucose metabolism; assay: LC-MS metabolite analysis of adult hearts
Description: as §4
To analyze intracellular metabolites, metabolites were extracted with cold liquid chromatography-mass spectrometry (LC-MS) grade 3/1 butanol/methanol (v/v). The methanol layer was transferred to a new vial and samples were dried under nitrogen flow and subsequently dissolved in LC-MS grade water for LC-MS analysis methods. Protein pellets were removed by centrifugation. Samples were analyzed using a Thermo Q-Exactive mass spectrometer coupled to a Vanquish Horizon Ultra-High Performance Liquid Chromatograph (UHPLC). Metabolites were separated on a C18 (details below) at a 0.2 ml per min flow rate and 30° C. column temperature. […] The identification of metabolites reported was based on exact m/z and retention times, which were determined with chemical standards. Data were analyzed with Maven. Relative metabolite levels were normalized to internal standard Tryptophan (^13C11) and expressed relative to levels measured in the control group.
To determine whether SDH inhibition regulates cardiomyocyte cell cycle activity by modulating succinate levels, we measured the levels of intracellular succinate by liquid chromatography-mass spectrometry (LC-MS). […]

cardiomyocytes = assay: Immunostaining (pH3, Aurora B), WGA and trichrome staining after MI in P7 mice; conditions: MI at P7, dimethyl malonate 100 mg/kg daily for 2 weeks from birth, 21 days post-MI
Excerpt: We then analyzed the hearts following injury to determine whether malonate results in prolongation of the neonatal regenerative window (FIG. 5A). To examine whether malonate stimulates cardiomyocyte proliferation, we performed MI in 7-day-old mice and analyzed their hearts at 7 days post-MI by immunostaining for markers of proliferation.
as §1, §2
Hearts were harvested and fixed in 4% paraformaldehyde (PFA) in PBS solution overnight at 4° C., processed for paraffin embedding, and sectioned in intervals. Masson's trichrome staining was performed according to the manufacture's protocol (Newcomer Supply, Middleton, WI). Scar size measurements were quantified from at least 3 sections of the heart from ligature to apex. ImageJ was used to quantify the fibrotic scar, and the average scar area for each heart was plotted.
We injected dimethyl malonate (100 mg/kg, daily) in neonatal mice directly after birth for 2 weeks with an MI performed once the mice reached P7.

[4] = MI, 2 WPMI, dimethyl malonate 100 mg/kg daily for 4 weeks starting 1 WPMI
[5] = MI, 3 WPMI, dimethyl malonate 100 mg/kg daily for 4 weeks starting 1 WPMI
[6] = MI, 4 WPMI, dimethyl malonate 100 mg/kg daily for 4 weeks starting 1 WPMI
[7] = MI, 6 WPMI, dimethyl malonate 100 mg/kg daily for 4 weeks starting 1 WPMI
[8] = malonate group, MI, 1 WPMI (before start of dosing)
[9] = malonate group, Pre (before MI and dosing)

Compound: COC(=O)CC(=O)OC [Malonate, dimethyl malonate]
- LVAWS (Left Ventricle Anterior Wall Thickness Systole) [1]: 0.820 ± 0.033 mm
- LVIDD (Left Ventricle Internal Diameter Diastole) [1]: 3.240 ± 0.185 mm
- LVIDS (Left Ventricle Internal Diameter Systole) [1]: 2.058 ± 0.204 mm
- LVPWD (Left Ventricle Posterior Wall Thickness Diastole) [1]: 0.643 ± 0.026 mm
- LVPWS (Left Ventricle Posterior Wall Thickness Systole) [1]: 0.818 ± 0.032 mm
- cardiac function by echocardiography ([2]; adult MI, malonate for 4 weeks starting 1-week post-MI, 4-weeks and 6-weeks post-MI): significant increase in cardiac function
- % EF (Ejection Fraction) [2, 4]: 34.537 ± 4.592%
- % FS (Fractional Shortening) [2, 4]: 16.507 ± 2.337%
- LV Mass (Left Ventricular Mass, Anatomical Weight) [2, 4]: 118.559 ± 20.724 mg
- LV Vol; d (Left Ventricular Volume; diastole) [2, 4]: 97.776 ± 23.854 µL
- LV Vol; s (Left Ventricular Volume; systole) [2, 4]: 69.099 ± 20.899 µL
- LVAWD (Left Ventricle Anterior Wall Thickness Diastole) [2, 4]: 0.698 ± 0.021 mm
- LVAWS (Left Ventricle Anterior Wall Thickness Systole) [2, 4]: 0.833 ± 0.016 mm
- LVIDD (Left Ventricle Internal Diameter Diastole) [2, 4]: 4.458 ± 0.467 mm
- LVIDS (Left Ventricle Internal Diameter Systole) [2, 4]: 3.772 ± 0.497 mm
- LVPWD (Left Ventricle Posterior Wall Thickness Diastole) [2, 4]: 0.671 ± 0.023 mm
- LVPWS (Left Ventricle Posterior Wall Thickness Systole) [2, 4]: 0.814 ± 0.012 mm
- % EF (Ejection Fraction) [2, 5]: 38.518 ± 3.865%
- % FS (Fractional Shortening) [2, 5]: 18.642 ± 2.058%
- LV Mass (Left Ventricular Mass, Anatomical Weight) [2, 5]: 90.090 ± 11.827 mg
- LV Vol; d (Left Ventricular Volume; diastole) [2, 5]: 78.984 ± 13.627 µL
- LV Vol; s (Left Ventricular Volume; systole) [2, 5]: 50.781 ± 11.724 µL
- LVAWD (Left Ventricle Anterior Wall Thickness Diastole) [2, 5]: 0.623 ± 0.024 mm
- LVAWS (Left Ventricle Anterior Wall Thickness Systole) [2, 5]: 0.791 ± 0.028 mm
- LVIDD (Left Ventricle Internal Diameter Diastole) [2, 5]: 4.139 ± 0.296 mm
- LVIDS (Left Ventricle Internal Diameter Systole) [2, 5]: 3.393 ± 0.326 mm
- LVPWD (Left Ventricle Posterior Wall Thickness Diastole) [2, 5]: 0.613 ± 0.017 mm
- LVPWS (Left Ventricle Posterior Wall Thickness Systole) [2, 5]: 0.764 ± 0.018 mm
- % EF (Ejection Fraction) [2, 6]: 45.375 ± 5.597%
- % FS (Fractional Shortening) [2, 6]: 24.529 ± 3.624%
- LV Mass (Left Ventricular Mass, Anatomical Weight) [2, 6]: 90.726 ± 13.717 mg
- LV Vol; d (Left Ventricular Volume; diastole) [2, 6]: 70.697 ± 15.089 µL
- LV Vol; s (Left Ventricular Volume; systole) [2, 6]: 47.342 ± 10.954 µL
- LVAWD (Left Ventricle Anterior Wall Thickness Diastole) [2, 6]: 0.687 ± 0.039 mm
- LVAWS (Left Ventricle Anterior Wall Thickness Systole) [2, 6]: 0.809 ± 0.051 mm
- LVIDD (Left Ventricle Internal Diameter Diastole) [2, 6]: 4.136 ± 0.349 mm
- LVIDS (Left Ventricle Internal Diameter Systole) [2, 6]: 2.958 ± 0.419 mm
- LVPWD (Left Ventricle Posterior Wall Thickness Diastole) [2, 6]: 0.962 ± 0.287 mm
- LVPWS (Left Ventricle Posterior Wall Thickness Systole) [2, 6]: 1.015 ± 0.214 mm
- % EF (Ejection Fraction) [2, 7]: 47.208 ± 4.087%
- % FS (Fractional Shortening) [2, 7]: 23.535 ± 2.509%
- LV Mass (Left Ventricular Mass, Anatomical Weight) [2, 7]: 107.845 ± 11.076 mg
- LV Vol; d (Left Ventricular Volume; diastole) [2, 7]: 75.865 ± 9.652 µL
- LV Vol; s (Left Ventricular Volume; systole) [2, 7]: 40.253 ± 6.696 µL
- LVAWD (Left Ventricle Anterior Wall Thickness Diastole) [2, 7]: 0.718 ± 0.011 mm
- LVAWS (Left Ventricle Anterior Wall Thickness Systole) [2, 7]: 0.831 ± 0.019 mm
- LVIDD (Left Ventricle Internal Diameter Diastole) [2, 7]: 4.113 ± 0.228 mm
- LVIDS (Left Ventricle Internal Diameter Systole) [2, 7]: 3.146 ± 0.214 mm
- LVPWD (Left Ventricle Posterior Wall Thickness Diastole) [2, 7]: 0.738 ± 0.018 mm
- LVPWS (Left Ventricle Posterior Wall Thickness Systole) [2, 7]: 0.846 ± 0.017 mm
- % EF (Ejection Fraction) [2, 8]: 35.760 ± 3.523%
- % FS (Fractional Shortening) [2, 8]: 17.077 ± 1.873%
- LV Mass (Left Ventricular Mass, Anatomical Weight) [2, 8]: 105.118 ± 13.726 mg
- LV Vol; d (Left Ventricular Volume; diastole) [2, 8]: 87.566 ± 16.492 µL
- LV Vol; s (Left Ventricular Volume; systole) [2, 8]: 57.371 ± 11.845 µL
- LVAWD (Left Ventricle Anterior Wall Thickness Diastole) [2, 8]: 0.651 ± 0.018 mm
- LVAWS (Left Ventricle Anterior Wall Thickness Systole) [2, 8]: 0.788 ± 0.016 mm
- LVIDD (Left Ventricle Internal Diameter Diastole) [2, 8]: 4.329 ± 0.343 mm
- LVIDS (Left Ventricle Internal Diameter Systole) [2, 8]: 3.603 ± 0.326 mm
- LVPWD (Left Ventricle Posterior Wall Thickness Diastole) [2, 8]: 0.665 ± 0.033 mm
- LVPWS (Left Ventricle Posterior Wall Thickness Systole) [2, 8]: 0.838 ± 0.025 mm
- % EF (Ejection Fraction) [2, 9]: 69.832 ± 3.238%
- % FS (Fractional Shortening) [2, 9]: 38.447 ± 2.452%
- LV Mass (Left Ventricular Mass, Anatomical Weight) [2, 9]: 59.124 ± 6.101 mg
- LV Vol; d (Left Ventricular Volume; diastole) [2, 9]: 32.452 ± 4.967 µL
- LV Vol; s (Left Ventricular Volume; systole) [2, 9]: 10.208 ± 2.260 µL
- LVAWD (Left Ventricle Anterior Wall Thickness Diastole) [2, 9]: 0.704 ± 0.023 mm
- LVAWS (Left Ventricle Anterior Wall Thickness Systole) [2, 9]: 0.838 ± 0.024 mm
- LVIDD (Left Ventricle Internal Diameter Diastole) [2, 9]: 2.872 ± 0.174 mm
- LVIDS (Left Ventricle Internal Diameter Systole) [2, 9]: 1.779 ± 0.158 mm
- LVPWD (Left Ventricle Posterior Wall Thickness Diastole) [2, 9]: 0.717 ± 0.020 mm
- LVPWS (Left Ventricle Posterior Wall Thickness Systole) [2, 9]: 0.829 ± 0.017 mm
- intracellular succinate levels in the heart (LC-MS) ([3]; adult MI, dimethyl malonate 100 mg/kg daily, 14 days post-MI): significant increase in succinate levels
- succinate levels (LC-MS metabolomics) ([3]; adult mice treated for 2 weeks with dimethyl malonate, vs saline): increase in succinate levels
- cardiomyocyte cell size (wheat germ agglutinin staining) (cardiomyocytes): significant reduction in cardiomyocyte cell size
- structural regeneration and fibrosis (trichrome staining) (cardiomyocytes; vs saline controls): complete heart regeneration
